Test results as given in patent US10941063B2 (priority 2015, dated 2021).
Entries after “also recorded” stand apart in the source; their conditions may differ. Where two headings read alike, the source gives them in different places.

Legend:
[1] = test system: Total bacteria; assay: Removal of bacteria from high H2S water, Luminultra ATP test method (Example 17); format: cell-based
Method: A high H2S water sample near Odessa, Tex., USA was tested for H2S and bacteria removal.
A 600 mL portion of the water was transferred by siphon pump to a 1 L beaker outfitted with a magnetic stir bar, pH probe, ORP probe and a sealed cover with a small opening for adding chemicals. The solution was mixed at a moderate rate at room temperature using a magnetic stir plate while a 17% hydrogen peroxide solution was added in a 1.9:1 molar ratio of oxidant to sulfide to remove about 80% of the H2S. […] After 10 minutes of reaction time aluminum coagulant and anionic flocculation polymer dispersion were added causing a rapid flocculation and settling of most of the pale yellow solids. The clarified supernatant was decanted to a second beaker outfitted the same as the first.
A 500 mL portion of the supernatant above was mixed while a 2.1% sodium peracetate solution was added in a 1.6:1 molar ratio of oxidant to sulfide to remove the remaining 20% of the H2S and promote a final clarification and bacteria removal. […] After 10 minutes of reaction time aluminum coagulant and anionic flocculation polymer dispersion were added causing a rapid flocculation and settling of the pale solids.

[2] = test system: naturally occurring microbes; assay: Preservation of guar mixture against microbial growth; format: cell-based; conditions: about 65 mg/L oxidant, at least a week at room temperature
Method: The use of the sodium peracetate oxidant formulation was tested for the depolymerization and break down of guar gum.
The guar mixture was made by rapidly mixing 10 g/L food grade guar gum powder into a 10 g/L sodium chloride solution in distilled water. The blended mixture was heated to about 35-40° C. in a heated water bath for at least one hour to fully hydrate the guar. The mixture appeared translucent with fine, milky white suspended solids. […] Several 60 mL portions of the guar mixture were prepared for different treatments as summarized in Table I. The first was a control sample to which no oxidant was added. The remaining samples had increasing amounts of sodium peracetate oxidant added to them. […] The oxidant was rapidly mixed with the guar mixture resulting in a pale yellow color. The mixtures were placed in a water bath at about 35-40° C. and the yellow color gradually faded away over the next hour. After two hours the samples were cooled to room temperature.
The control sample remained viscous for a day, but lost viscosity after sitting at room temperature overnight and microbial growth as a biofilm was visible after a week. […] The fine, suspended solids settled out leaving a clear, colorless solution. A second treatment of the last sample reduced the viscosity further by a small amount.

[3] = test system: acid producing bacteria (APB); assay: Uintah basin produced water: acid producing bacteria level; format: cell-based; conditions: for APB: untreated 100-1000
Method: (§1) Produced water from the Uintah basin in eastern Utah was tested for sulfide treatment and clarification with sodium peracetate solution. The untreated water appeared green-grey in color, was pH 8.1 and contained about 30 mg/L H2S (as S^2), 90 mg/L organic or other sulfides (as S^2−), and 90 mg/L sulfate. Total iron was about 5 mg/L therefore iron sulfide was only a minor sulfide component.
(§2) A first water sample was treated by a “partial oxidation” in Table II with sodium peracetate oxidant solution. The water was stirred in a closed container while sodium peracetate oxidant was added in a 1.25:1 molar ratio of oxidant to H2S. Aluminum coagulant (about 35 mg/L as Al) was added with the oxidant. The mixture was stirred for 30 seconds and then about 5 mg/L of anionic polymer was added. Large floe formed rapidly over the next 60 seconds and then stirring was stopped. The flocculated solids settled rapidly leaving a clear, colorless supernatant. The “partial oxidation” treatment removed hydrogen sulfide and reduced acid producing bacteria (APB) and sulfate reducing bacteria (SRB) levels to 1-10 cells/mL for each. The ORP increased from −166 mV to 88 mV vs SHE (oxidant was fully consumed) and there was a 20 ppm increase in sulfate concentration due to oxidation of a small portion of sulfur-containing contaminants to sulfate.
(§3) A second water sample was treated by a “full oxidation” in Table II with sodium peracetate oxidant solution. The water was stirred in a closed container while sodium peracetate oxidant was added in a 3.8:1 molar ratio of oxidant to H2S. Aluminum coagulant (about 35 mg/L as Al) was added with the oxidant. The mixture was stirred for 30 seconds and then about 5 mg/L of anionic polymer was added. Large floe formed rapidly over the next 60 seconds and then stirring was stopped. The flocculated solids settled rapidly leaving a clear, colorless supernatant. […]

[4] = 7% sodium peracetate solution in clean water; cited from earlier work
[5] = Stability of sodium peracetate oxidant solution (half-life, loss of active oxidant); format: physicochemical
Excerpt: However, the sodium peracetate oxidant solutions were discovered to be stable enough, when diluted to below 1% concentration, to have a working time practical for producing large volumes of treatment fluids in a tank for down-hole well treatment applications including hydrogen sulfide mitigation, bacteria reduction, iron sulfide scale cleaning and polymer gel breaking.
In some embodiments, to conduct a well treatment a large, diluted volume of sodium peracetate oxidant solution is preferably staged in a carrier fluid having no oxidant demand. The carrier fluid may include fresh water, salt water, treated production water and, optionally, combined with other treatment chemicals such as hydrochloric acid, citric acid, acetic acid, acid-containing micellar solvent, corrosion inhibitor, and iron chelant. Lower concentrations, less than 1%, of sodium peracetate oxidant may be staged for a limited period of time with small losses in active oxidant. For example, a 0.25% solution is expected to lose about 4-6% of its active sodium peracetate per hour at 20° C. A container, tank or tanker truck of sodium peracetate solution must be vented to release oxygen gas byproduct evolved from the oxidant as it naturally degrades in a carrier fluid.
In this example a diluted sodium peracetate oxidant solution is staged in 500 barrel (21,000 gal) quantities produced in a 55 minute period. […]

[6] = test system: sulfate reducing bacteria (SRB); assay: Uintah basin produced water: sulfate reducing bacteria level; format: cell-based; conditions: for SRB: untreated 10-100
Method: as §1, §2, §3

[7] = for time until ORP rose above 100 mV indicating H2S fully oxidized: 80 mg/L H2S water
Method: Hydrogen peroxide is an inexpensive oxidant for H2S removal, but is slow acting relative to several other oxidants. Shortening the reaction time or contact time required in a water treatment process reduces the volume of contact basins or increases the throughput of a treatment process such as that described in Example 17.
A portion of the 80 mg/L H2S water was treated by mixing into it a 17% wt/wt solution of hydrogen peroxide such that the molar ratio of hydrogen peroxide to sulfide was about 5.7:1. Hydrogen peroxide was added in excess such that it was not a limiting reagent in the oxidation reaction. The ORP and pH of the water was monitored to track the oxidation rate of H2S. FIG. 3 depicts the progression of ORP and pH over time during oxidation.
A second portion of the 80 mg/L H2S water was treated by mixing into it a 17% wt/wt solution of hydrogen peroxide such that the molar ratio of hydrogen peroxide to sulfide was about 5.7:1. A small portion of muriatic acid (about 34% hydrochloric acid solution) was added with the hydrogen peroxide to slightly lower the pH to between 6.5 and 7.0 thereby converting at least a portion of the NaHS to H2S and accelerate the reaction rate. FIG. 4 depicts the progression of ORP and pH over time during oxidation.

[8] = Treated Water Full Oxidation (3.8:1)
[9] = Treated Water Partial Oxidation (1.25:1)
[10] = full oxidation (3.8:1), after 4 months at room temperature

Compound	ATP and corresponding bacteria population reduced by, relative to the untreated water ([1]; after second step: sodium peracetate 1.6:1 following hydrogen peroxide step) [%]	ATP concentration in supernatant ([1]; second step: sodium peracetate 1.6:1 after hydrogen peroxide step) [pg/mL]	microbial growth in guar mixture (preservative effect) [2]	APB [3, 8] [cells/mL]	APB [3, 9]	grow back of APB [3, 10]	half-life [4]	loss of active oxidant concentration ([5]; 0.2% diluted solution, in 55 minutes at 25° C.) [%]	loss of active sodium peracetate per hour ([5]; 0.25% solution, 20° C.)	SRB [6, 8] [cells/mL]	SRB [6, 9]	grow back of SRB [6, 10]	ATP and corresponding bacteria population reduced by ([1]; first step: hydrogen peroxide 1.9:1, then coagulant and polymer)	ATP concentration in supernatant ([1]; first step: hydrogen peroxide 1.9:1, then coagulant and polymer, untreated 280 pg/mL) [pg/mL]	time until ORP rose above 100 mV indicating H2S fully oxidized ([7]; 17% wt/wt hydrogen peroxide, 5.7:1 molar to sulfide, no acid)	time until ORP rose above 100 mV indicating H2S fully oxidized ([7]; hydrogen peroxide 5.7:1 with muriatic acid, pH between 6.5 and 7.0)	rate of H2S oxidation when acid was added with the oxidant ([7]; hydrogen peroxide 5.7:1 with muriatic acid versus without)
sodium peracetate [sodium peracetate oxidant solution]	99	3	did act as a preservative; also recorded: no microbial growth was observed	<1	1-10 cells/mL	no detectable grow back	about 80 minutes	~4	4-6%	<1	1-10 cells/mL	no detectable grow back					
OO [hydrogen peroxide]													about 95%	14	about 22 minutes	about 9 minutes	approximately doubled
